How the values were obtained:
[1] = Steady-state pharmacokinetics of oral TU alone or with finasteride; assay type: in vivo, men; settings: seventh day of dosing, all treatments (Fig. 2A)
[2] = system: endogenous testosterone production; settings: 300 µg/kg subcutaneous, normal healthy men; ref Herbst et al., 2004; cited from earlier work
5α-reductase = settings: finasteride 2 mg daily; ref Steiner, 1996; cited from earlier work

For CCCCCCCCCCC(=O)O[C@H]1CC[C@H]2[C@@H]3CCC4=CC(=O)CC[C@]4(C)[C@H]3CC[C@]12C [TU + placebo, testosterone undecanoate], the “Time after dosing at which mean serum testosterone concentrations peaked” value [1] was 4 h.
In the case of acyline, the “Duration of testosterone suppression” value [2] is given as 2 weeks and the “Time to suppression of testosterone to castrate levels” value [2] is given as ≤ 24 h.
For CC(C)(C)NC(=O)[C@H]1CC[C@H]2[C@@H]3CC[C@H]4NC(=O)C=C[C@]4(C)[C@H]3CC[C@]12C [finasteride], the “Reduction of circulating levels of DHT” value (5α-reductase) is listed as 50%.

Reference: paper PMC4269219 (International journal of andrology, 2010)
